# In ChEMBL document CHEMBL1136405, “Acyclic N-(azacycloalkyl)bisindolylmaleimides: isozyme selective inhibitors of PKCbeta” (Bioorg Med Chem Lett, 2003):
# Columns and labels:
# [1] = target: T1, Protein kinase C zeta type (Homo sapiens, UniProt Q05513); test: Inhibition of Protein kinase C zeta
# T1 sequence (Q05513 whole entry): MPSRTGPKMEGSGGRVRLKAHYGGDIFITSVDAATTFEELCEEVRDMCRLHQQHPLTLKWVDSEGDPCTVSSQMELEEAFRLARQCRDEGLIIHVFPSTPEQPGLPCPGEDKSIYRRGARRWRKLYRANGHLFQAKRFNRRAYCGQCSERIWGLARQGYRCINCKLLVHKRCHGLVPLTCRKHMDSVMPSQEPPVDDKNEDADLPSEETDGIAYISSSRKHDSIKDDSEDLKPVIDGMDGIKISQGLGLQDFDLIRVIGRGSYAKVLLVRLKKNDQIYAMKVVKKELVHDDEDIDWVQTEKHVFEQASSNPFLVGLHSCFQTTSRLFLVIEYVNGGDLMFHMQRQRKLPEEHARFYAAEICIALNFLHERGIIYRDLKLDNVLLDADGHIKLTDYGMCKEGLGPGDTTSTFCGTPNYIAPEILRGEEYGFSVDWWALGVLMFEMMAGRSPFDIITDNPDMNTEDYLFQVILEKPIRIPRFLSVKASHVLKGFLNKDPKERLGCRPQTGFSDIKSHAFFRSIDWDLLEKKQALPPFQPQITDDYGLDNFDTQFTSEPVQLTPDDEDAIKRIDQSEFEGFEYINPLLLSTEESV
# [2] = target: Protein kinase C gamma type (Homo sapiens, UniProt P05129); test: Inhibition of Protein kinase C gamma
# [3] = target: T2, Protein kinase C beta type (Homo sapiens, UniProt P05771); test: Inhibition of Protein kinase C beta 2
# T2 sequence (P05771 whole entry): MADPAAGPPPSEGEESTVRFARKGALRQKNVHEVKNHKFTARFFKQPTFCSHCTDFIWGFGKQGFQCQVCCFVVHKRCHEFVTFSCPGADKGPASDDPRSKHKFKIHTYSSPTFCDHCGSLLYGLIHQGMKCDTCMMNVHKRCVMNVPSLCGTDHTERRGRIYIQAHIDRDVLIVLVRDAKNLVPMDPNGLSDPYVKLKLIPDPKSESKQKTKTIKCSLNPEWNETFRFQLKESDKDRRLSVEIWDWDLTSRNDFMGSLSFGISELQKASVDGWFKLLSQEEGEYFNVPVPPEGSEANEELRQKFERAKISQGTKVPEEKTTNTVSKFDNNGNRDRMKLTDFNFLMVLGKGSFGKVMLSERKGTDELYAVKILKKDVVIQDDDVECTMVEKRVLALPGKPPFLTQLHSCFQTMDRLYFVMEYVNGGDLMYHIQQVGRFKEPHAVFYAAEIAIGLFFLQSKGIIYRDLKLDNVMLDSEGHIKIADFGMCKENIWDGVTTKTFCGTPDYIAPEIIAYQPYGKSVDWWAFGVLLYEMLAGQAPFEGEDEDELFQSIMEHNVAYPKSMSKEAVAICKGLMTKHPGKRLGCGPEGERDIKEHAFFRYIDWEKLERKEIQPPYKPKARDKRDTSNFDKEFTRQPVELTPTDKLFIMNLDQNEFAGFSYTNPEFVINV
# [4] = Inhibition of cAMP dependent protein kinase catalytic subunit of bovine heart; parameters: species or system Bos taurus
# [5] = Inhibition of purified rat brain casein kinase II
# [6] = target: T3, Protein kinase C epsilon type (Homo sapiens, UniProt Q02156); test: Inhibition of Protein kinase C epsilon
# T3 sequence (Q02156 whole entry): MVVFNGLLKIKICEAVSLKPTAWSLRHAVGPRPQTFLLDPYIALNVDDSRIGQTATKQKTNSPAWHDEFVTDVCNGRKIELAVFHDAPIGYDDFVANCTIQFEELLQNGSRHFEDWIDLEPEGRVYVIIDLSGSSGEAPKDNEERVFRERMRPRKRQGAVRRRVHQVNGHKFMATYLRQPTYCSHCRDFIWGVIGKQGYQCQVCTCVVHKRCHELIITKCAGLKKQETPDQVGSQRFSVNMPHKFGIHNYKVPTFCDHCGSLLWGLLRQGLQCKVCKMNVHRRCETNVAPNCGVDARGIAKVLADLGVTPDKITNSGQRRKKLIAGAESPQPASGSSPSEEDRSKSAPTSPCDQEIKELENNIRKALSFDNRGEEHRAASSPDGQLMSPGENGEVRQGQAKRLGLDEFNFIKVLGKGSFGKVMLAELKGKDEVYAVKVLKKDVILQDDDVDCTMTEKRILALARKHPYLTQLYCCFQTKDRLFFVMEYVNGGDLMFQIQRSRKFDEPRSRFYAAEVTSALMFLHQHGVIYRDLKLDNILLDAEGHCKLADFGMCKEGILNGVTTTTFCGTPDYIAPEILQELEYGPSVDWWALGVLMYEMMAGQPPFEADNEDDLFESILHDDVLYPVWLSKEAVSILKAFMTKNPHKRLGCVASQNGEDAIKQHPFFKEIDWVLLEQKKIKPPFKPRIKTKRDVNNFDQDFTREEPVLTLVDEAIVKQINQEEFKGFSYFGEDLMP
# [7] = target: Protein kinase C (PKC); test: Inhibition of purified rat brain protein kinase C (RB-PKC)
# [8] = target: T2, Protein kinase C beta type; test: Inhibition of Protein kinase C beta 1
# [9] = target: Protein kinase C alpha type (Homo sapiens, UniProt P17252); test: Inhibition of Protein kinase C alpha
# [10] = target: Protein kinase C delta type (Homo sapiens, UniProt Q05655); test: Inhibition of Protein kinase C delta
# Sequence of Protein kinase C delta type (Q05655 whole entry): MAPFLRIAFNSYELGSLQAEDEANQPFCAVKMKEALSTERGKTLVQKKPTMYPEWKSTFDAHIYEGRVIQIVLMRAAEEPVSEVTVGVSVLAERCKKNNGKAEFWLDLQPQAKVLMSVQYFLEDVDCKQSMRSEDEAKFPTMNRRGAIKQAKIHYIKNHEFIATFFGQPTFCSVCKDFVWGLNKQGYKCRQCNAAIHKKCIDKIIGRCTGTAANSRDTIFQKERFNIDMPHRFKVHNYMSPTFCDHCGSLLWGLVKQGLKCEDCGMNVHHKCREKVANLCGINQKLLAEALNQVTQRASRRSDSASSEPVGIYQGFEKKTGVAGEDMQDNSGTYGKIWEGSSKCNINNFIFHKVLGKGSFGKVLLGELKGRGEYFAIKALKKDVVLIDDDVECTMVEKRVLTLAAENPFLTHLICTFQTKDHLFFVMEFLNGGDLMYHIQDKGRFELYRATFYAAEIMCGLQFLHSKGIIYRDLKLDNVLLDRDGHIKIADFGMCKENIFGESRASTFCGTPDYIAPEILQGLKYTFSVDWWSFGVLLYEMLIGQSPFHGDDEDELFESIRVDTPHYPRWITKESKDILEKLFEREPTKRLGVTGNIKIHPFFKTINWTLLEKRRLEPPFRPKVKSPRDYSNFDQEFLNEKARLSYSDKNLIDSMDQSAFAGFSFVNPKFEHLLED
# [11] = target: Protein kinase C eta type (Homo sapiens, UniProt P24723); test: Inhibition of Protein kinase C eta
# Sequence of Protein kinase C eta type (P24723 whole entry): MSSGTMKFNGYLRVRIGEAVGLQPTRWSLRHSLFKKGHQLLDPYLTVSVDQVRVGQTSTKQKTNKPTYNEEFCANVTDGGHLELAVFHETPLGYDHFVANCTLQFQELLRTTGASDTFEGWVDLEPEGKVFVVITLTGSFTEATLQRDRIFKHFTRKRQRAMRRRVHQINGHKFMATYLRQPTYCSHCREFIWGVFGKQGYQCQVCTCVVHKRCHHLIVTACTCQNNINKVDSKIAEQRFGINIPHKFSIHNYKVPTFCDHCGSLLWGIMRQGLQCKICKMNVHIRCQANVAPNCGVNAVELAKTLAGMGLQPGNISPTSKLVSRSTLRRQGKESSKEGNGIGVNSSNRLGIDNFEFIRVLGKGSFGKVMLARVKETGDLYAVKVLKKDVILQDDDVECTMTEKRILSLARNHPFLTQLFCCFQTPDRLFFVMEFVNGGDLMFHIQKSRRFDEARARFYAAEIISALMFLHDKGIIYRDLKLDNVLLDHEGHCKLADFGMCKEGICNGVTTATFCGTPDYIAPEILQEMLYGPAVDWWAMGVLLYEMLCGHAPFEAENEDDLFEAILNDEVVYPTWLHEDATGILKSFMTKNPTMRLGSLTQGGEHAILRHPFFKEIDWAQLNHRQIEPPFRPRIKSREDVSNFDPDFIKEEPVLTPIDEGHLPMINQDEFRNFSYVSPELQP
# [12] = target: CaM kinase II (Homo sapiens, UniProt Q13557+Q13555+Q13554+Q9UQM7); test: Inhibition of purified mammalian brain [Ca(2+)]/Calmodulin dependent kinase
# [13] = target: Proto-oncogene tyrosine-protein kinase Src (Homo sapiens, UniProt P12931); test: Inhibition of Src protein tyrosine kinase
# Sequence of Proto-oncogene tyrosine-protein kinase Src (P12931 2-536 limits assumed): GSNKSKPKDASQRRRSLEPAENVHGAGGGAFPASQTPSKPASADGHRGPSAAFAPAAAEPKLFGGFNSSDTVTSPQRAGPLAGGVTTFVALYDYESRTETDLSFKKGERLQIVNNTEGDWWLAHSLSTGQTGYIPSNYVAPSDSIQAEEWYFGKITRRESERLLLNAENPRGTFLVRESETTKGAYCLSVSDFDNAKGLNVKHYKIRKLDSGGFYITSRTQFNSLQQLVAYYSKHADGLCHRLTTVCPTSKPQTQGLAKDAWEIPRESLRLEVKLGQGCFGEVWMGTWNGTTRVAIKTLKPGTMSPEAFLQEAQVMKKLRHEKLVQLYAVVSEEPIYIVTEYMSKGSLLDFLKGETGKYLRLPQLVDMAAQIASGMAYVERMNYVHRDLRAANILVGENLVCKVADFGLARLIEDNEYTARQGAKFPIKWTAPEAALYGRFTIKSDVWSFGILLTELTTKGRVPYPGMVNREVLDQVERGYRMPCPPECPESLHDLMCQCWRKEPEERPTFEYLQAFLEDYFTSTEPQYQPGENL
IC50 [1],IC50 [2],IC50 [3],IC50 [4],IC50 [5],IC50 [6],IC50 [7],IC50 [8],IC50 [9],IC50 [10],IC50 [11],IC50 [13],SMILES,IC50 [12]
> 100 µM,5 µM,0.08 µM,–,–,6 µM,–,0.2 µM,6 µM,7 µM,8 µM,–,Cn1cc(C2=C(c3cn(C4CCN(C(=O)OC(C)(C)C)CC4)c4ccccc34)C(=O)NC2=O)c2ccccc21,–
–,–,–,> 100 µM,> 100 µM,–,0.25 µM,–,–,–,–,–,CC(C)N1CCC(n2cc(C3=C(c4cn(C)c5ccccc45)C(=O)NC3=O)c3ccccc32)CC1,–
–,–,–,> 100 µM,> 100 µM,–,–,–,–,–,–,–,CN(C)C[C@@H]1CCn2cc(c3ccccc32)C2=C(C(=O)NC2=O)c2cn(c3ccccc23)CCO1,–
–,–,–,7 µM,> 100 µM,–,0.2 µM,–,–,–,–,> 100 µM,CN1CCC(n2cc(C3=C(c4cn(C)c5ccccc45)C(=O)NC3=O)c3ccccc32)CC1,–
–,–,–,8 µM,> 100 µM,–,–,–,–,–,–,11 µM,CCN1CCC(n2cc(C3=C(c4cn(C)c5ccccc45)C(=O)NC3=O)c3ccccc32)CC1,–
–,–,–,1 µM,> 100 µM,–,–,–,–,–,–,–,Cn1cc(C2=C(c3cn(C4CCNCC4)c4ccccc34)C(=O)NC2=O)c2ccccc21,–

# More lines, now with the values behind:
SMILES,IC50 [1],IC50 [2],IC50 [3],IC50 [4],IC50 [5],IC50 [6],IC50 [7],IC50 [8],IC50 [9],IC50 [10],IC50 [11],IC50 [13],IC50 [12]
Cn1cc(C2=C(c3cn(C4CCN(Cc5ccccc5)C4)c4ccccc34)C(=O)NC2=O)c2ccccc21 (stereo unspecified),> 100 µM,3.5 µM,0.024 µM,> 100 µM,> 100 µM,9.4 µM,2.8 µM,0.022 µM,3.8 µM,4.2 µM,0.042 µM,–,–
Cn1cc(C2=C(c3cn(C4CCN(Cc5ccccc5)CC4)c4ccccc34)C(=O)NC2=O)c2ccccc21,> 100 µM,–,–,> 100 µM,> 40 µM,–,4 µM,–,–,–,–,> 100 µM,> 40 µM
CN1CCC(n2cc(C3=C(c4c[nH]c5ccccc45)C(=O)NC3=O)c3ccccc32)CC1,–,–,–,4 µM,91 µM,–,0.2 µM,–,–,–,–,83 µM,3 µM
Cn1cc(C2=C(c3cn(C4CCN(CC5CC5)CC4)c4ccccc34)C(=O)NC2=O)c2ccccc21,–,–,–,> 100 µM,> 100 µM,–,0.3 µM,–,–,–,–,68 µM,–
Cn1cc(C2=C(c3cn(C4CCN(Cc5ccccn5)CC4)c4ccccc34)C(=O)NC2=O)c2ccccc21 [ENZASTAURIN],–,–,–,> 100 µM,> 100 µM,–,0.7 µM,–,–,–,–,–,–
